Measurements as given in PubChem BioAssay (NCI).
Values joined by “and” are separate entries in the source; they are usually repeats but may differ in a detail not shown here. Equal values may be shown once.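 Test compounds were applied to cells in 96-well plates for 48 hours at 5 doses. GI50 is the concentration that inhibits growth by half. TGI: total growth inhibition.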

Tests used:
Assay in all cases: NCI-60 cell line screen, 48 h
[1] = tested on: ACHN renal
[2] = tested on: NCI/ADR-RES ovarian
[3] = tested on: A549 NSCLC
[4] = tested on: MOLT-4 leukemia
[5] = tested on: SK-MEL-2 melanoma
[6] = tested on: KM12 colon
[7] = tested on: NCI-H460 lung
[8] = tested on: OVCAR-5 ovarian
[9] = tested on: COLO 205 colon
[10] = tested on: 786-0 renal

Row | Compound | GI50 [1] | TGI [1] | GI50 [2] | TGI [2] | GI50 [3] | TGI [3] | GI50 [4] | TGI [4] | GI50 [5] | TGI [5] | GI50 [6] | TGI [6] | GI50 [7] | TGI [7] | GI50 [8] | TGI [8] | GI50 [9] | TGI [9] | GI50 [10] | TGI [10]
1 | CC(C)=CCc1cc2c(cc1O)C1=C(C(=O)C3=C(C1=O)S(=O)(=O)CCN3)C(C=C(C)C)O2 (configuration not stated) | 2.27 µM | 5.65 µM | 6.66 µM | 16.7 µM | 2.23 µM | 5.59 µM | 0.718 µM | 3.99 µM | 1.44 µM | 5.29 µM | 2.05 µM | 6.99 µM | 0.454 µM | 2.3 µM | 2.73 µM | 5.93 µM | 0.64 µM | 2.41 µM | 2.49 µM | 7.03 µM
2 | CC(C)/C=C1\CCC(CN(C)C)C1=O (configuration not stated) | – | 12.5 µM | – | 10.6 µM | – | 17.2 µM | – | 3.48 µM | – | 14.3 µM | – | 4.65 µM | – | 40.1 µM | – | 15.3 µM | – | 1.41 µM | – | 1.25 µM
3 | COc1ccc(-c2cc(-c3ccc(Nc4nc(Nc5ccccc5)nc(Nc5ccc(Cl)cc5)n4)cc3)nc(N)n2)cc1 | 16.4 µM | > 50 µM | 37.4 µM | > 50 µM | 20.5 µM | > 50 µM | 0.623 µM | 12 µM | 13.1 µM | 44.1 µM | 4.72 µM | 45.1 µM | 8.57 µM | 26.7 µM | 9.72 µM | 26.3 µM | 2.29 µM | 16.7 µM | 11.5 µM | 33.1 µM
4 | CN1CCN(CC(=O)N(C)c2ccc(N=C(c3ccccc3)c3c(O)[nH]c4ccc(C#N)cc34)cc2)CC1 | 3.06 µM | 10.9 µM | 17.9 µM | 60.1 µM | 3.13 µM | 21.2 µM | 0.601 µM | 9.38 µM | 3.39 µM | 15.7 µM | 0.0516 µM | 6.03 µM | 1.38 µM | 3.25 µM | 7.11 µM | 19.2 µM | 0.528 µM | 12.4 µM | 2.3 µM | 14.6 µM
5 | C#Cc1cccc(Nc2ncnc3cc(NC(=O)CCl)ccc23)c1 | 2.14 µM | 5.66 µM | 4.65 µM | 17.2 µM | 3.59 µM | 7.93 µM | 0.739 µM | 3.45 µM | 3.82 µM | 7.77 µM | 3.29 µM | 7.13 µM | 2.89 µM | 6.63 µM | 1.12 µM | 5.63 µM | 3.62 µM | 7.45 µM | 1.07 µM | 5.53 µM
6 | Oc1ccc(Br)cc1C=Nc1cccc(C(F)(F)F)c1 | – | > 100 µM | – | > 100 µM | – | > 100 µM | – | 83.8 µM | – | 49 µM | – | > 100 µM | – | > 100 µM | – | > 100 µM | – | > 100 µM | – | > 100 µM
7 | COc1ccc(C(O)c2cc3c(N)c(C(=O)Nc4ccc(Cl)cc4)sc3nc2C)cc1 (configuration not stated) | 3.53 µM | 15.7 µM | 3.86 µM | 28 µM | 3.53 µM | 14.9 µM | 3.09 µM | > 100 µM | 8.6 µM | 69.6 µM | 1.64 µM | 7.1 µM | 2.3 µM | 6.25 µM | 3.97 µM | 25.5 µM | 3.99 µM | 23 µM | 8.2 µM | 31.8 µM
8 | O=C1CC2OCC=C3CN4CCC56c7ccccc7N1C5C2C3CC46O (configuration not stated) | – | > 100 µM | – | > 100 µM | – | > 100 µM | – | > 100 µM | – | > 100 µM | – | > 100 µM | – | > 100 µM | – | > 100 µM | – | > 100 µM | – | > 100 µM
9 | COc1cc2cc(Oc3ccc(NC(=O)Nc4cc(C(F)(F)F)cc(C(F)(F)F)c4)cc3)c(C)nc2cc1OCCN1CCOCC1 | 1.53 µM | 5.42 µM | 1.59 µM | 7.21 µM | 1.72 µM | 7.23 µM | 1.32 µM | 4.29 µM | 1.74 µM | 6.91 µM | 1.53 µM | 5.95 µM | 1.66 µM | 5.52 µM | 2.18 µM | 7.97 µM | 1.02 µM | 2.18 µM | 1.28 µM | 3.65 µM
10 | Clc1nccc2c(-c3csc(-c4c[nH]c5ccc(Br)cc45)n3)c[nH]c12 | 2.02 µM | 12.6 µM | 2.71 µM | 10.7 µM | 3.83 µM | 12.8 µM | 3.02 µM | 13.9 µM | 4.09 µM | 16.4 µM | 2.15 µM | 5.7 µM | 2.16 µM | 4.58 µM | 3.14 µM | 9.88 µM | 1.8 µM | 5.61 µM | 1.37 µM | 2.93 µM
11 | NC(N)=N/N=C/c1c(-c2ccsc2)nc2n1CCS2 | 18.5 µM | 46 µM | > 100 µM | > 100 µM | 73.7 µM | > 100 µM | 15.3 µM | 42.9 µM | 51.9 µM | > 100 µM | 17.1 µM | 43.1 µM | 27.9 µM | > 100 µM | 19.9 µM | 48.2 µM | 19.8 µM | 48.5 µM | 15.4 µM | 38.7 µM
12 | CCN(CC)c1ccc(/C=C/C(=O)c2ccc(Nc3nc(Nc4ccccc4)nc(Nc4ccccc4)n3)cc2)cc1 | 6.1 µM | > 100 µM | 4.3 µM | > 100 µM | 12.8 µM | 78.1 µM | 2.08 µM | 12 µM | 4.04 µM | 85.2 µM | 1.42 µM | 65.1 µM | 2.55 µM | 17.6 µM | 17.5 µM | > 100 µM | 1.17 µM | 21.9 µM | 5.21 µM | 27.7 µM
13 | c1ccc(-c2oc(-c3ccccc3)c(CN3CCCCC3)c2CN2CCCCC2)cc1 | 2.54 µM | 10.2 µM | 4.17 µM | 15.9 µM | 5.55 µM | 24.8 µM | 2.03 µM | 5.58 µM | 3.72 µM | 15.7 µM | 2.9 µM | 10.4 µM | 3.25 µM | 14.2 µM | 1.82 µM | 8.85 µM | 1.45 µM | 5.01 µM | 2.8 µM | 12.7 µM
14 | COc1cc2oc(-c3cccc(C(=O)Nc4ccc(Cl)cc4)c3)cc(=O)c2c(OC)c1OC | 3.17 µM | > 100 µM | 1.81 µM | > 100 µM | 3.56 µM | > 100 µM | 2.22 µM | > 100 µM | 2.96 µM | 9.22 µM | 2.37 µM | > 100 µM | 2.76 µM | > 100 µM | 1.87 µM | > 100 µM | 1.47 µM | 4.04 µM | 2.53 µM | > 100 µM
15 | CCN1CCN(c2nc(C)cc(N(CCCNc3ccnc4cc(Cl)ccc34)Cc3ccc4c(c3)OCO4)n2)CC1 | 2.03 µM | 4.15 µM | 2.63 µM | 10.1 µM | 1.97 µM | 7.42 µM | 1.2 µM | 4.35 µM | 1.83 µM | 3.5 µM | 2.42 µM | 10.8 µM | 1.53 µM | 3.54 µM | 2.57 µM | 7.77 µM | 1.7 µM | 3.46 µM | 1.46 µM | 2.95 µM
16 | COc1cc(/C=C2\C(=O)N(Cc3ccc(Cl)cc3)c3ccccc32)cc(OC)c1OC | 2.9 µM | 8.37 µM | 2.85 µM | 9.96 µM | 4.27 µM | 19.2 µM | 2.2 µM | 5.97 µM | 4.86 µM | 18 µM | 2.19 µM | 5.7 µM | 2.82 µM | 8.38 µM | 3.38 µM | 14.5 µM | 3.15 µM | 8.52 µM | 3.37 µM | 14.9 µM
17 | C=C1C(=O)O[C@H]2[C@H]1CC/C(COC(=O)c1cc(OC)c(OC)c(OC)c1)=C\CC[C@@]1(C)O[C@@H]21 | 0.743 µM | 2.02 µM | 2.87 µM | 13.8 µM | 3.05 µM | 12.1 µM | 1.64 µM | 5.55 µM | 1.6 µM | 3.63 µM | 2.26 µM | 5.82 µM | 2.35 µM | 6.52 µM | 1.76 µM | 5.08 µM | 1.18 µM | 3.09 µM | 1.27 µM | 2.72 µM
18 | COC(=O)NC1C(C)OC(OC2C/C=C(/C)C3C=CC4C(OC5CC(OC6CCC(OC7CC(O)C(OC8CCC(O)C(C)O8)C(C)O7)C(C)O6)C(OC(C)=O)C(C)O5)C(C)CC(C)C4C3(C)/C(O)=C3/C(=O)OC4(CC(C=O)=CC(O)C4/C=C\2C)C3=O)CC1(C)[N+](=O)[O-] (configuration not stated) | – | 2.72 µM | – | 26.3 µM | 0.48 µM | 8.73 µM and 2.5 µM | 0.131 µM | 4.78 µM and 0.634 µM | 0.0551 µM | – | 0.0714 µM | 2.04 µM and 0.337 µM | 0.319 µM | 2.17 µM and 2.14 µM | 1.14 µM | 4.71 µM and 2.55 µM | 0.321 µM | 2.71 µM and 1.08 µM | 0.21 µM | 2.2 µM and 0.518 µM
19 | Oc1ccc(Cl)cc1C(c1cc(Cl)ccc1O)C(Cl)(Cl)Cl | 1.76 µM | 4.11 µM | 1.99 µM | 4.67 µM | 2.68 µM | 8.25 µM | 1.54 µM | 5.06 µM | 2.12 µM | 5.36 µM | 1.73 µM | 3.34 µM | 2.13 µM | 4.58 µM | 1.66 µM | 3.68 µM | 1.9 µM | 3.82 µM | 2 µM | 3.99 µM
20 | Cn1cc(/C=C\[N+](=O)[O-])c2ccccc21 | > 100 µM | > 100 µM | > 100 µM | > 100 µM | 46.4 µM | > 100 µM | 23.7 µM | 58.4 µM | > 100 µM | > 100 µM | 34.9 µM | > 100 µM | 38.6 µM | > 100 µM | > 100 µM | > 100 µM | 42.3 µM | > 100 µM | > 100 µM | > 100 µM
21 | CCOC(=O)CSc1cc(Cl)c(C)cc1S(=O)(=O)/N=C(/N=C/c1ccc([N+](=O)[O-])s1)NNC | 17 µM | 39.9 µM | 12.7 µM | 30.7 µM | 32.7 µM | > 100 µM | 16.7 µM | 44.3 µM | 31 µM | 59.1 µM | 18.5 µM | 42.2 µM | 35.1 µM | > 100 µM | 6.02 µM | 38.4 µM | 16 µM | 34.8 µM | 20.2 µM | 42.5 µM
